Source: paper PMC11150392, “Structure and mechanism of the K^+/H^+ exchanger KefC” (Nature Communications, 2024)

Molecular target: T1, KefC WT* (Escherichia coli, UniProt P03819)
T1 construct: lacks final 60 C-terminal residues (WT*); C-terminal TEV-GFP-His8, cleaved for cryo-EM, kept in FSEC stability assays; expressed in E. coli Lemo21(DE3)-type host; homodimer in DDM/GDN
T1 sequence (P03819 1-560): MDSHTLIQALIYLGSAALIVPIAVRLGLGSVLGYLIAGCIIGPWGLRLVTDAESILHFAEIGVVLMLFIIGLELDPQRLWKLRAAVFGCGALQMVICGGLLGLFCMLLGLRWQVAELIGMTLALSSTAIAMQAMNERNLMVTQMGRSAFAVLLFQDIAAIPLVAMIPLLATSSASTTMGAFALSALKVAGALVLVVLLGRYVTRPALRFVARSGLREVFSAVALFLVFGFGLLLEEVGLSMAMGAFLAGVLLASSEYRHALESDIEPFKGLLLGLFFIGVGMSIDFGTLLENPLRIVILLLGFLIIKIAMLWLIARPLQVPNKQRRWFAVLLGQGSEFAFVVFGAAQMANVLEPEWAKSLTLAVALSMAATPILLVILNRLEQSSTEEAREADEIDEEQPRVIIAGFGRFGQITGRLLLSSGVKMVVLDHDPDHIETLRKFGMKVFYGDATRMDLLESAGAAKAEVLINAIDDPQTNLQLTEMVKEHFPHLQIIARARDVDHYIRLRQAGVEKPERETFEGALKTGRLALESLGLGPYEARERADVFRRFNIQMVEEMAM
Assay: FSEC thermostabilization of purified GFP fusion
Assay type: binding
Settings: 40 °C 10 min, 1% beta-OG, DDM, 1 mM AMP, pH 7.5; dimer interface; Supplementary Fig. 5b; PG modelled (PGW), map density not unambiguous

## CCCCCCCC/C=C\CCCCCCCC(=O)OC[C@H](COP(=O)(O)OCC(O)CO)OC(=O)CCCCCCC/C=C\CCCCCCCC (stereo partly shown) [DOPG]
  FSEC thermostabilization of purified GFP fusion: The clearest thermostabilization of the KefC homodimer was observed upon addition of PG lipids
